These compounds were tested on HCV2aChLuc virus (assay: In vitro HCVcc entry assay: HCV2aChLuc virus infection of Huh7 cells, Renilla luciferase read-out). Settings: Hepatitis C virus, Huh-7, read-out: Activity class (IC50), tested according to the method of Example 3.
Type: cell-based, HCV genotype 2a

Structure (SMILES)	IC50
COc1ccc(C(C)(C)c2ccccc2)cc1NC(=O)C(=O)c1ccc(OCCN2CCOCC2)c2ccccc12 [Compound 16, N-(2-methoxy-5-(2-phenylpropan-2-yl)phenyl)-2-(4-(2-morpholinoethoxy)naphthalen-1-yl)-2-oxoacetamide]	< 5 nM
COc1c(NC(=O)C(=O)c2ccc(OC)c3ccccc23)cc(C(C)(C)C)cc1C(=O)NCC1CC1 [Compound 17, 5-tert-butyl-N-(cyclopropylmethyl)-2-methoxy-3-(2-(4-methoxynaphthalen-1-yl)-2-oxoacetamido)benzamide]	< 5 nM
CCCNC(=O)c1cc(C(C)(C)C)cc(NC(=O)C(=O)c2ccc(OCCN3CCOCC3)c3ccccc23)c1OC [Compound 18, 5-tert-butyl-2-methoxy-3-(2-(4-(2-morpholinoethoxy)naphthalen-1-yl)-2-oxoacetamido)-N-propylbenzamide]	< 5 nM
CCOc1ccc(C(=O)C(=O)Nc2cc(C(C)(C)C)ccc2OC)c2ccccc12 [Compound 19, N-(5-tert-butyl-2-methoxyphenyl)-2-(4-ethoxynaphthalen-1-yl)-2-oxoacetamide]	< 5 nM
COc1ccc(C(C)(C)C)cc1NC(=O)C(=O)c1ccc(OC(C)C)c2ccccc12 [Compound 20, N-(5-tert-butyl-2-methoxyphenyl)-2-oxo-2-[4-(propan-2-yloxy)naphthalen-1-yl]acetamide]	< 5 nM
COc1c(NC(=O)C(=O)c2ccc(OCCN3CCOCC3)c3ccccc23)cc(C(C)(C)C)cc1NC(=O)N1CCCC1 [Compound 22]	5 to 500 nM
CCC(C)(C)c1cc(NC(=O)C(=O)c2ccc(OCCN3CCOCC3)c3ccccc23)c(OC)c(C(C)(C)CC)c1 [Compound 23]	5 to 500 nM
COc1c(NC(=O)C(=O)c2ccc(OCCN3CCOCC3)c3ccccc23)cc(C(C)(C)C)cc1C(=O)N1CCOCC1 [Compound 24]	5 to 500 nM
COc1c(NC(=O)C(=O)c2ccc(OCCN3CCOCC3)c3ccccc23)cc(C(C)(C)C)cc1C(=O)N1CCCCC1 [Compound 25]	5 to 500 nM
COc1c(NC(=O)C(=O)c2ccc(OCCN3CCOCC3)c3ccccc23)cc(C(C)(C)C)cc1C(=O)N1CCNC(=O)C1 [Compound 26]	5 to 500 nM
CC(C)(C)c1cccc(NC(=O)C(=O)c2ccc(OCCN3CCOCC3)c3ccccc23)c1 [Compound 27]	> 500 nM
COc1ccc(C(F)(F)F)cc1NC(=O)C(=O)c1ccc(OCCN2CCOCC2)c2ccccc12 [Compound 28]	> 500 nM
CC(C)(C)c1cc(CN2CCOCC2)c(O)c(NC(=O)C(=O)c2ccc(OCCN3CCOCC3)c3ccccc23)c1 [Compound 29]	> 500 nM
Cc1cc(C(C)(C)C)cc(NC(=O)C(=O)c2ccc(OCCN3CCOCC3)c3ccccc23)c1O [Compound 30]	> 500 nM
COc1c(C)cc(C(C)(C)C)cc1NC(=O)C(=O)c1ccc(OCCN2CCOCC2)c2ccccc12 [Compound 31]	> 500 nM
CC(C)(C)c1ccc(NC(=O)C(=O)c2ccc(OCCN3CCOCC3)c3ccccc23)cc1 [Compound 32]	> 500 nM
CC(C)(C)c1cc(NC(=O)C(=O)c2ccc(OCCN3CCOCC3)c3ccccc23)c(O)c(C(N)=O)c1 [Compound 33]	> 500 nM
CC(C)(C)c1cc(NC(=O)C(=O)c2ccc(OCCN3CCOCC3)c3ccccc23)n(-c2ccccc2)n1 [Compound 34]	> 500 nM
COc1ccc(-n2nc(C(C)(C)C)cc2NC(=O)C(=O)c2ccc(OCCN3CCOCC3)c3ccccc23)cc1 [Compound 35]	> 500 nM
Cc1ccc(-n2nc(C(C)(C)C)cc2NC(=O)C(=O)c2ccc(OCCN3CCS(=O)(=O)CC3)c3ccccc23)cc1 [Compound 36]	> 500 nM
Cc1ccc(-n2nc(C(C)(C)C)cc2NC(=O)C(=O)c2ccc(OCCN3CC[S+]([O-])CC3)c3ccccc23)cc1 [Compound 37]	> 500 nM
Cc1ccc(-n2nc(C(C)(C)C)cc2NC(=O)C(=O)c2ccc(OCCN3CCCOCC3)c3ccccc23)cc1 [Compound 38]	> 500 nM
Cc1ccc(-n2nc(C(C)(C)C)cc2NC(=O)C(=O)c2ccc(CCN3CCNCC3)c3ccccc23)cc1 [Compound 39]	> 500 nM

Structure (SMILES)	IC50
CCOc1ccc(C(C)(C)C)cc1NC(=O)C(=O)c1ccc(OCCN2CCOCC2)c2ccccc12 [Compound 41]	> 500 nM
CC(C)Oc1ccc(C(C)(C)C)cc1NC(=O)C(=O)c1ccc(OCCN2CCOCC2)c2ccccc12 [Compound 42]	> 500 nM
CC(C)(C)c1ccccc1NC(=O)C(=O)c1ccc(OCCN2CCOCC2)c2ccccc12 [Compound 43]	> 500 nM
CC(C)(C)c1cc(NC(=O)C(=O)c2ccc(OCCN3CCOCC3)c3ccccc23)[nH]n1 [Compound 44]	> 500 nM
Cc1cc(-n2nc(C(C)(C)C)cc2NC(=O)C(=O)c2ccc(OCCN3CCOCC3)c3ccccc23)ccc1F [Compound 45]	> 500 nM
CC(=O)n1nc(C(C)(C)C)cc1NC(=O)C(=O)c1ccc(OCCN2CCOCC2)c2ccccc12 [Compound 46]	> 500 nM
CC(C)(C)c1cc(C(F)(F)F)nc(NC(=O)C(=O)c2ccc(OCCN3CCOCC3)c3ccccc23)n1 [Compound 47]	> 500 nM
CC(C)(C)c1cc(N)nc(NC(=O)C(=O)c2ccc(OCCN3CCOCC3)c3ccccc23)n1 [Compound 48]	> 500 nM
Cc1cccc(-n2nc(C(C)(C)C)cc2NC(=O)C(=O)c2ccc(OCCN3CCOCC3)c3ccccc23)c1C [Compound 49]	> 500 nM
Cn1nc(C(C)(C)C)cc1NC(=O)C(=O)c1ccc(OCCN2CCOCC2)c2ccccc12 [Compound 50]	> 500 nM
COc1c(NC(=O)C(=O)c2ccc(OCCN3CCN(C)CC3)c3ccccc23)cc(C(C)(C)C)cc1NS(C)(=O)=O [Compound 51]	> 500 nM
CCOC(=O)N1CCN(CCOc2ccc(C(=O)C(=O)Nc3cc(C(C)(C)C)cc(NS(C)(=O)=O)c3OC)c3ccccc23)CC1 [Compound 52]	5 to 500 nM
COc1c(NC(=O)C(=O)c2ccc(OCCN3CCNC(=O)C3)c3ccccc23)cc(C(C)(C)C)cc1NS(C)(=O)=O [Compound 53]	> 500 nM
COc1c(NC(=O)C(=O)c2ccc(OCCN3CCN(C(C)=O)CC3)c3ccccc23)cc(C(C)(C)C)cc1NS(C)(=O)=O [Compound 54]	5 to 500 nM
COc1c(NC(=O)C(=O)c2ccc(OCCn3ccnc3)c3ccccc23)cc(C(C)(C)C)cc1NS(C)(=O)=O [Compound 55]	5 to 500 nM
COc1c(NC(=O)C(=O)c2ccc(OCCN3CCN(C(=O)OC(C)(C)C)CC3)c3ccccc23)cc(C(C)(C)C)cc1NS(C)(=O)=O [Compound 56]	5 to 500 nM
COc1c(NC(=O)C(=O)c2ccc(OCCN3CC(C)OC(C)C3)c3ccccc23)cc(C(C)(C)C)cc1NS(C)(=O)=O (stereo not shown) [Compound 57]	5 to 500 nM
COc1c(NC(=O)C(=O)c2ccc(OCCN3CCNCC3)c3ccccc23)cc(C(C)(C)C)cc1NS(C)(=O)=O [Compound 58]	> 500 nM
CC(C)(C)c1cc(NC(=O)C(=O)c2ccc(OCCN3CCOCC3)c3ccccc23)n(C(C)(C)C)n1 [Compound 59]	> 500 nM
CC(C)(C)c1cc(NC(=O)C(=O)c2ccc(OCCN3CCOCC3)c3ccccc23)no1 [Compound 60]	> 500 nM
CC(C)(C)c1nnc(NC(=O)C(=O)c2ccc(OCCN3CCOCC3)c3ccccc23)s1 [Compound 61]	> 500 nM
Cc1ccc(C(C)C)cc1NC(=O)C(=O)c1ccc(OCCN2CCOCC2)c2ccccc12 [Compound 62]	5 to 500 nM
Cc1ccc(C)c(NC(=O)C(=O)c2ccc(OCCN3CCOCC3)c3ccccc23)c1 [Compound 63]	> 500 nM
